# Source: patent US20240067651A1 (Biohaven Therapeutics Ltd., priority 2019, published 2024)
# How the values were obtained:
# [1] = Stability in Simulated Gastric Fluid (SGF); format: in vitro ADME; set-up: key: % parent compound remaining relative to 0-minute sample
# Procedure: (§1) Simulated gastric fluid (SGF) and Simulated intestinal fluid (SIF) stability are in vitro metrics indicating the ability of a compound to pass through the gastrointestinal tract […] or completely digested. An undigested or nearly undigested compound will usually survive gut transit long enough to be absorbed into the systemic circulation. Greater than 50% remaining intact compound at 1 hour indicates a relatively stable molecule that will likely be absorbed in the gut.
# (§2) For each test compound, samples at a final concentration of 2 μg/mL are prepared in respective blank simulated gastric fluid with pepsin (pH 1.2) and simulated intestinal fluid with pancreatin (pH 6.8). All samples are incubated at 37° C. on a 150-rpm orbital shaker, and an aliquot is removed at predetermined time points (0 to 60 minutes). Samples are precipitated with three volumes of acetonitrile containing propranolol as internal standard, and centrifuged for 10 min at 2,000 g before LC-MS/MS analysis of the supernatant solutions. Percent parent compound remaining is determined relative to 0-minute incubation samples. If a sufficient number of time points are available, the degradation half-life is calculated based on the natural log of % compound remaining vs. time plot.
# [2] = Stability in Simulated Intestinal Fluid (SIF); format: in vitro ADME; set-up: key: % parent compound remaining relative to 0-minute sample
# Procedure: as §1, §2
# Plasma Stability = format: in vitro ADME, human
# Procedure: Plasma stability estimates the ability of a compound to remain intact in the blood. For prodrugs that are intended to be hydrolyzed by plasma enzymes a certain level of instability in plasma indicates the compound is probably breaking down to the parent drug. A stability range of 25-75% remaining parent compound after 1 hour in plasma indicates the compound is likely breaking down to the parent drug molecule and a patient will be exposed to this parent molecule.
# Assessment of plasma stability was carried out by individual incubations of drug candidates in fresh human plasma at a concentration of 1 μM for 1 hour at 37° C. After which, the samples were de-proteinized by addition of 2 volumes of acetonitrile containing 0.1% formic acid and internal standard, vortex mixed for 2 minutes and centrifuged at 4,000 rpm for 10 minutes to pellet precipitated protein. The resulting supernatant containing the drug candidates was diluted 5-fold with water containing 0.1% formic acid and submitted to LCMS/MS analysis. All determinations were done in triplicate. Plasma stability was expressed as percent of control remaining.
# See Pelletier et al. ACS Med. Chem. Lett. 2018, 9, 752-756.
# [3] = % remaining at 1 h, SGF with pepsin pH 1.2, 2 μg/mL, 37° C.
# [4] = % remaining at 1 h, SIF with pancreatin pH 6.8, 2 μg/mL, 37° C.
# [5] = % remaining at 1 h, human plasma, 1 μM, 37° C.
# [6] = % remaining at 1 h in simulated gastric fluid, the 15th table
# [7] = % remaining at 1 h in simulated intestinal fluid, the 15th table
# [8] = % remaining at 1 h in human plasma, the 15th table
# [9] = simulated gastric fluid, remaining at 1 h
# [10] = simulated intestinal fluid, remaining at 1 h
compound,measurement,setting,value
"CC(C)OCCn1c(=S)[nH]c(=O)c2c1ccn2COC(=O)CCCCCCC(=O)OCCl [Example 137, 1-Chloromethyl 8-{4-oxo-1-[2-(propan-2-yloxy)ethyl]-2-sulfanylidene-1H,2H,3H,4H,5H-pyrrolo[3,2-d]pyrimidin-5-yl}methyl octanedioate]",SGF,[1]; [3],74%
same,SIF,[2]; [4],56%
same,human Plasma stability,Plasma Stability; [5],1%
"CC(C)OCCn1c(=S)[nH]c(=O)c2c1ccn2S(=O)(=O)c1ccccc1F [Example 79, 5-(2-fluorobenzenesulfonyl)-1-[2-(propan-2-yloxy)ethyl]-2-sulfanylidene-1H,2H,3H,4H,5H-pyrrolo[3,2-d]pyrimidin-4-one]",SGF,[1]; [3],92%
same,SIF,[2]; [4],82%
same,human Plasma stability,Plasma Stability; [5],98%
CCOC(=O)OCSc1nc(=O)c2c(ccn2CSc2nc(=O)c3[nH]ccc3n2CCOC(C)C)n1CCOC(C)C [Example 202],SGF,[1]; [6],45% remaining
same,SIF,[2]; [7],52% remaining
same,human Plasma stability,Plasma Stability; [8],3% remaining
CCCNC(=O)OCSc1nc(=O)c2[nH]ccc2n1CCOC(C)C [Example 182],SGF,[1]; [6],81% @ 1 h
same,SIF,[2]; [7],69% @ 1 h
same,human Plasma stability,Plasma Stability; [8],94% @ 1 h
"N-[2-(2-aminoethoxy)ethyl]-4-oxo-1-[2-(propan-2-yloxy)ethyl]-2-sulfanylidene-1H, 2H,3H,4H,5H-pyrrolo[3,2-d]pyrimidine-5-carboxamide; trifluoroacetic acid [Example 376]",SGF,[1]; [9],98% remaining
same,SIF,[2]; [10],99% remaining
same,human Plasma stability,"Plasma Stability; human plasma, remaining at 1 h",95% remaining
"tert-butyl N-(2-{2-[methyl({[{{4-oxo-1-[2-(propan-2-yloxy)ethyl]-1H,4H,5H-pyrrolo[3,2-d]pyrimidin-2-yl}sulfanyl)methoxy]carbonyl})ami-no]ethoxy}ethyl)carbamate [Example 379]",SGF,[1]; [9],93% remaining
same,SIF,[2]; [10],69% remaining
same,human Plasma stability,"Plasma Stability; human plasma, remaining at 1 h",0% remaining
"Cc1ccc(S(=O)(=O)n2ccc3c2c(=O)[nH]c(=S)n3CCOC(C)C)cc1C [Example 75, 5-(3,4-Dimethylbenzenesulfonyl)-1-[2-(propan-2-yloxy)ethyl]-2-sulfanyl-1H,4H,5H-pyrrolo[3,2-d]pyrimidin-4-one]",SGF,[1]; [3],99%
same,SIF,[2]; [4],91%
same,human Plasma stability,Plasma Stability; [5],100%
"CC(C)OCCn1c2nc(=O)c3c1ccn3COC(=O)CCC(=O)N1CCC(CC1)C(=O)OCS2 [Example 138, 25-[2-(propan-2-yloxy)ethyl]-3,15-dioxa-5-thia-7,13,20,25-tetraazatetra-cyclo[18.2.2.1^{6,10}.0^{9,13}]penta-cosa-6,9,11-triene-2,8,16,19-tetrone]",SGF,[1]; [3],100% remaining
same,SIF,[2]; [4],98% remaining
same,human Plasma stability,Plasma Stability; [5],66% remaining
CCOC(=O)OCSc1nc(=O)c2[nH]ccc2n1CCOC(C)C [Example 201],SGF,[1]; [6],100% remaining
same,SIF,[2]; [7],43% remaining
same,human Plasma stability,Plasma Stability; [8],0% remaining
"bis(trifluoroacetic acid) 5-{[2-({[(5-{[(2R)-2-amino-4-methylpentanoyl]oxy}penta-noyl)oxy]methyl}sulfanyl)-4-oxo-1-[2-(propan-2-yloxy)ethyl]-1H,4H,5H-pyrrolo[3,2-d]pyrimidin-5-yl]methoxy}-5-oxopentyl (2R)-2-amino-4-methylpentanoate [Example 351]",SGF,[1]; [9],69% remaining
same,SIF,[2]; [10],14% remaining
same,human Plasma stability,"Plasma Stability; human plasma, remaining at 1 h",99% remaining
"butoxy)carbonyl]amino}ethoxy)eth-yl](methyl)carbamoyl}oxy)methyl]sul-fanyl}-4-oxo-1-[2-(propan-2-yloxy)ethyl]-1H,4H,5H-pyrrolo[3,2-d]pyrimidin-5-yl)methoxy]carbonyl}(methyl)ami-no)ethoxy]ethyl}carbamate [Example 381]",SGF,[1]; [9],82% remaining
same,SIF,[2]; [10],97% remaining
same,human Plasma stability,"Plasma Stability; human plasma, remaining at 1 h",97% remaining
"COc1ccc(CSc2nc(=O)c3[nH]ccc3n2CCOC(C)C)cc1 [Example 74, 2-{[(4-Methoxyphenyl)methyl]sulfanyl}-1-[2-(propan-2-yloxy)ethyl]-1H,4H,5H-pyrrolo[3,2-d]pyrimidin-4-one]",SGF,[1]; [3],37%
same,SIF,[2]; [4],97%
same,human Plasma stability,Plasma Stability; [5],97%
"({4-oxo-1-[2-(propan-2-yloxy)ethyl]-1H,4H,5H-pyrrolo[3,2-d]pyrimidin-2 yl}sulfanyl)methyl N-butylcarbamate [Example 185]",SGF,[1]; [6],78% @ 1 h
same,SIF,[2]; [7],67% @ 1 h
same,human Plasma stability,Plasma Stability; [8],96% @ 1 h
"(2R)-2-{[(tert-butoxy)carbonyl]amino}-3-methyl-N-{2-[2-(2-{[{{4-oxo-1-[2-(propan-2-yloxy)ethyl]-2-sulfanylidene-1H,2H,3H,4H,5H-pyrrolo[3,2-d]pyrimidin-5-yl}methoxy)carbonyl]oxy}ethoxy)eth-oxy]ethyl}butanamide [Example 377]",SGF,"[1]; simulated gastric fluid, bare number, unit or time not given",83
same,SIF,"[2]; simulated intestinal fluid, bare number, unit or time not given",11
same,human Plasma stability,"Plasma Stability; human plasma, remaining at 1 h",8% remaining
"Cc1ccccc1S(=O)(=O)n1ccc2c1c(=O)[nH]c(=S)n2CCOC(C)C [Example 80, 5-(2-methylbenzenesulfonyl)-1-[2-(propan-2-yloxy)ethyl]-2-sulfanylidene-1H,2H,3H,4H,5H-pyrrolo[3,2-d]pyrimidin-4-one]",SGF,[1]; [3],90%
same,SIF,[2]; [4],87%
same,human Plasma stability,Plasma Stability; [5],99%
"CC(C)C[C@@H](N)C(=O)OCn1ccc2c1c(=O)[nH]c(=S)n2CCOC(C)C.O=C(O)C(F)(F)F [Example 324, trifluoroacetic acid {4-oxo-1-[2-(propan-2-yloxy)ethyl]-2-sulfanylidene-1H,2H,3H,4H,5H-pyrrolo[3,2-d]pyrimidin-5-yl}methyl (2R)-2-amino-4-methylpentanoate]",SGF,[1]; % remaining @ 1 h,98%@ 1 h
same,SIF,[2]; % remaining @ 1 h,24%@ 1 h
same,human Plasma stability,Plasma Stability; % remaining @ 1 h,1%@ 1 h
"{4-oxo-1-[2-(propan-2-yloxy)ethyl]-2-sulfanylidene-1H,2H,3H,4H,5H-pyrrolo[3,2-d]pyrimidin-5-yl}methyl (2R)-1-[2-(2-{[(tert-butoxy)carbonyl]amino}acetamido) acetyl]pyrrolidine-2-carboxylate [Example 405]",SGF,[1]; % remaining after 1 h in simulated gastric fluid,83% remaining
same,SIF,[2]; % remaining after 1 h in simulated intestinal fluid,81% remaining
same,human Plasma stability,Plasma Stability; % remaining after 1 h in human plasma,1% remaining
"CC(C)OCCn1c(=S)[nH]c(=O)c2c1ccn2S(C)(=O)=O [Example 76, 5-methanesulfonyl-1-[2-(propan-2-yloxy)ethyl]-2-sulfanylidene-1H,2H,3H,4H,5H-pyrrolo[3,2-d]pyrimidin-4-one]",SGF,[1]; [3],96%
same,SIF,[2]; [4],91%
same,human Plasma stability,Plasma Stability; [5],98%
"CC(C)OCCn1c(=S)n(COC(=O)C2CCNCC2)c(=O)c2c1ccn2COC(=O)CCC(=O)O.O=C(O)C(F)(F)F [Example 139, 4-oxo-4-({4-oxo-3-[(piperidine-4-carbonyloxy)methyl]-1-[2-(propan-2-yloxy)ethyl]-2-sulfanylidene-1H,2H,3H,4H,5H-pyrrolo[3,2-d]pyrimidin-5-yl}methoxy)butanoic acid; trifluoroacetic acid]",SGF,[1]; [3],99% remaining
same,SIF,[2]; [4],98% remaining
same,human Plasma stability,Plasma Stability; [5],8% remaining
"CC(C)OCCn1c(=S)[nH]c(=O)c2c1ccn2COC(=O)CCCCCCC(=O)OCn1ccc2c1c(=O)[nH]c(=S)n2CCOC(C)C [Example 136, 1,8-Bis({4-oxo-1-[2-(propan-2-yloxy)ethyl]-2-sulfanylidene-1H,2H,3H,4H,5H-pyrrolo[3,2-d]pyrimidin-5-yl}methyl) octanedioate]",SGF,[1]; [3],77%
same,SIF,[2]; [4],2%
same,human Plasma stability,Plasma Stability; [5],2%
"CC(C)OCCn1c(=S)[nH]c(=O)c2c1ccn2C[C@]1(C(=O)O)CCCN1C(=O)OC(C)(C)C.O=C(O)C(F)(F)F [Example 2, trifluoroacetic acid 1-tert-butyl 2-{4-oxo-1-[2-(propan-2-yloxy)ethyl]-2-sulfanylidene-1H,2H,3H,4H,5H-pyrrolo [3,2-d]pyrimidin-5-yl}methyl(2S)-pyrrolidine-1,2-dicarboxylate]",human Plasma stability,Plasma Stability; [5],73%
